Experiments:
[1] = log P (octanol-water fractionation coefficient); details: for logP: octanol/water
[2] = Composition identification of the solvent after 30 times of washing with solvent reuse; format: physicochemical; details: for Content in solvent collected in the solvent storage tank after final washing: initial 96.0 wt %
Protocol: The washing machines according to Examples and Comparative Examples according to the present disclosure were prepared, and washing was performed under the same conditions. The same type of fibers was put into each washing machine, and a composition including a compound according to the Chemical Formula 1 (wherein R1 and R2 are alkyl having 1 carbon atom, and R3 is hydrogen) was used as a laundry solvent.
At the first washing, the solvent was supplied, the washing was performed for 15 minutes, the solvent was collected while undergoing a drying process, another fiber was put into the washing machine, and the collected solvent was re-supplied for washing. 30 times of washing in total were performed in the same way, without replacement of the solvent storage tank or cartridge during the washing process.

SMILES	logP [1]	other results
CCCCOCCOCCO [2-(2-butoxyethoxy)ethanol]	0.65	–
CCOC(=O)c1ccccc1C(=O)O [2-(ethoxycarbonyl)benzoic acid]	1.8	–
CC1(C)OCC(CO)O1 (stereo not drawn) [Chemical Formula 1, solketal]	–	Amount decomposed into acetone and glycerol ([2]; 30 washings, conventional washing machine (Comparative Example 2-1)): approximately 30 wt %; Content in solvent collected in the solvent storage tank after final washing ([2]; 30 washings, washing machine of Comparative Example 2-1 (conventional)): 69.0 wt %; Content in solvent collected in the solvent storage tank after final washing ([2]; 30 washings, washing machine of Example 2-1): 91.4 wt %; Content in solvent collected in the solvent storage tank after final washing ([2]; 30 washings, washing machine of Example 2-2): 92.7 wt %; Content in solvent collected in the solvent storage tank after final washing ([2]; 30 washings, washing machine of Example 2-3): 94.1 wt %; Content in solvent collected in the solvent storage tank after final washing ([2]; 30 washings, washing machine of Example 2-4): 94.9 wt %; Content in solvent collected in the solvent storage tank after final washing ([2]; 30 washings, washing machine of Example 2-5): 95.5 wt %; Amount decomposed ([2]; after 30 times of washing, washing machine according to an example embodiment): less than 10 wt %; Log P ([1]; octanol-water): approximately 1.07
OCCO [Ethylene glycol, reference compound]	-1.93	–
CC(C)=CCC/C(C)=C/CO [Geraniol]	3.47	–
Oc1cccc(O)c1 [Resorcinol]	1.13	–

More lines, main results first:

logP [1]	SMILES	other results
2.19	Cc1cc(O)c(C)c(O)c1C(=O)O [2,4-Dihydroxy-3,6-dimethylbenzoic acid]	–
1.63	Cc1nc(N(C)C)nc(O)c1C [2-(dimethylamino)-5,6-dimethylpyrimidin-4-ol]	–
4.68	CCCCCCC(C=O)=Cc1ccccc1 [Alpha-hexyl cinnamaldehyde, reference compound]	–
0.71	COc1cc(C=O)ccc1O [Vanillin]	–

— patent US20230242843A1, “GREEN SOLVENT, LAUNDRY COMPOSITION COMPRISING SAME, AND WASHING MACHINE” (LG HOUSEHOLD & HEALTH CARE LTD., priority 2020, published 2023)
